23 molecules from US9902725B2, “Heterocyclic derivatives as RORgamma modulators” (GENFIT, priority 2014, dated 2018) can be followed below.

For this test, the target named is T1, RORγt ligand-binding domain (RORγt-LBD) (Homo sapiens, UniProt P51449).
T1 construct: 20 nM recombinantly expressed RORγ-LBD fused to GST
T1 sequence (P51449 269-508 limits assumed): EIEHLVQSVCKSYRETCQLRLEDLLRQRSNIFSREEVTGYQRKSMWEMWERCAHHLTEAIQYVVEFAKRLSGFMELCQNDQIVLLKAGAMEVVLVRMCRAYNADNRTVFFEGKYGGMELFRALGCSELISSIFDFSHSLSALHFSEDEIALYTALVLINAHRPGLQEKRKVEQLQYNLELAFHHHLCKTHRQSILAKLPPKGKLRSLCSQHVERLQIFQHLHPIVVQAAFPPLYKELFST
The test can be described thus: Time-resolved FRET (TR-FRET) RORγt coactivator assay. The format is biochemical. Conditions: GST-RORγ-LBD, biotinylated RIP140 peptide, coactivator displacement. From the text:
Time-resolved FRET (TR-FRET) RORγt coactivator assay was used to identify RORγ modulator compounds with ligand-dependent coactivator displacement. The assay uses a d2-labeled anti-GST antibody, synthetic N-terminally biotinylated peptide which is derived from nuclear receptor coactivator protein RIP140, and a RORγt ligand-binding domain (RORγt-LBD) that is tagged with glutathione-S-transferase (GST). The influence of compounds on the RORγ-peptide interaction relies on the binding dependent energy transfer from a donor to an acceptor fluorophore attached to the binding partner of interest. […] For reduction of background from compound fluorescence, TR-FRET method makes use of generic fluorophore labels and time resolved detection.
The assays were done in a final volume of 20 μl in a 384 well plate in a CHAPS buffer (2 mM CHAPS; 1 mM DTT, 2 mM EDTA; 0.1% BSA), containing 20 nM recombinantly expressed RORγ-LBD fused to GST, 30 nM N-terminally biotinylated peptide, 1 nM streptavidin-terbium conjugate and 20 nM d2 labeled-anti-GST. Test compounds were diluted using 10 mM stock solution. The range of the final compound concentrations used in this test was from 0.3 nM to 30 μM (logarithmic scale). DMSO content of the samples was kept at 1%. The assay was equilibrated for 2 hours in the dark at room temperature in 384 well plates (Falcon). The signal was detected by an Ultra384 reader (TECAN). The results were visualized by plotting the ratio between the emitted light at 665 nm and 620 nm. A basal level of RORγ-peptide formation is observed in the absence of added compound. Compounds that promote coactivator displacement induce a concentration-dependent decrease in time-resolved fluorescent signal. Data were collected and analyzed using GraphPad Prism software (GraphPad Software V5.02, San Diego Calif. USA). IC50 in μM and Emax in % were reported for each compound.
In turn, `CC(C)(C)OC(=O)CCc1c[nH]c2ccc(CC(=O)NC(c3ccccc3)c3ccccc3-n3cccc3)cc12` (centres unmarked) [Cpd. 106, tert-butyl 3-{5-[({phenyl[2-(1H-pyrrol-1-yl)phenyl]methyl}carbamoyl)methyl]-1H-indol-3-yl}propanoate] registered an IC50 of 1 to 10 µM. Take `Cc1ccc(N2CCCCC2)c(C(NC(=O)Cc2ccc3[nH]cc(CCC(=O)OC(C)(C)C)c3c2)c2ccccc2)c1` (centres unmarked) [Cpd. 113, tert-butyl 3-{5-[({[5-methyl-2-(piperidin-1-yl)phenyl](phenyl)methyl}carbamoyl)methyl]-1H-indol-3-yl}propanoate]: the IC50 is 1 to 10 µM. For the molecule `CC(C)(C)OC(=O)CCc1c[nH]c2ccc(CC(=O)NC(c3ccccc3)c3cc(Br)ccc3N3CCCC3)cc12` (centres unmarked) [Cpd. 116, tert-butyl 3-{5-[({[5-bromo-2-(pyrrolidin-1-yl)phenyl](phenyl)methyl}carbamoyl)methyl]-1H-indol-3-yl}propanoate], the IC50 fell in the range of 1 to 10 µM. Molecule `CN(C)Cc1ccccc1C(NC(=O)Cc1ccc2[nH]cc(CCC(=O)O)c2c1)c1ccccc1` (centres unmarked) [Cpd. 122, 3-(5-{[({2-[(dimethylamino)methyl]phenyl}(phenyl)methyl)carbamoyl]methyl}-1H-indol-3-yl)propanoic acid] gave an IC50 below 1 µM. In the case of `CC(C)(C)OC(=O)CCc1c[nH]c2ccc(CC(=O)NC(c3ccccc3)c3ccccc3N3CCCC(O)C3)cc12` (centres unmarked) [Cpd. 123, tert-butyl 3-{5-[({[2-(3-hydroxypiperidin-1-yl)phenyl](phenyl)methyl}carbamoyl)methyl]-1H-indol-3-yl}propanoate] it was 1 to 10 µM. The molecule `CC(C)(C)OC(=O)CCc1c[nH]c2ccc(CC(=O)NC(c3ccccc3)c3ccccc3N3CC=CCC3)cc12` (centres unmarked) [Cpd. 127, tert-butyl 3-{5-[({phenyl[2-(1,2,3,6-tetrahydropyridin-1-yl)phenyl]methyl}carbamoyl)methyl]-1H-indol-3-yl}propanoate] came in with a 50% inhibitory concentration (IC50) of 1 to 10 µM. To `CC(C)(C)OC(=O)CCc1c[nH]c2ccc(CC(=O)NC3(c4ccccc4N4CCCC4)CCCC3)cc12` [Cpd. 129, tert-butyl 3-{5-[({1-[2-(pyrrolidin-1-yl)phenyl]cyclopentyl}carbamoyl)methyl]-1H-indol-3-yl}propanoate] belongs 1 to 10 µM. For the molecule `Cc1ccc(C(NC(=O)Cc2ccc3[nH]cc(CCC(=O)OC(C)(C)C)c3c2)c2ncccn2)c(N2CCCCC2)c1` (centres unmarked) [Cpd. 131, tert-butyl 3-{5-[({[4-methyl-2-(piperidin-1-yl)phenyl](pyrimidin-2-yl)methyl}carbamoyl)methyl]-1H-indol-3-yl}propanoate], the IC50 is below 1 µM. In the case of `Cc1ccc(C(CC(C)C)NC(=O)Cc2ccc3[nH]cc(CCC(=O)OC(C)(C)C)c3c2)c(N(C)C)c1` (centres unmarked) [Cpd. 133, tert-butyl 3-{5-[({1-[2-(dimethylamino)-4-methylphenyl]-3-methylbutyl}carbamoyl)methyl]-1H-indol-3-yl}propanoate] it was 1 to 10 µM; in that of `COc1ccc(N2CCCCC2)c(C(NC(=O)Cc2ccc3[nH]cc(CCC(=O)OC(C)(C)C)c3c2)c2ccccc2)c1` (centres unmarked) [Cpd. 135, tert-butyl 3-{5-[({[5-methoxy-2-(piperidin-1-yl)phenyl](phenyl)methyl}carbamoyl)methyl]-1H-indol-3-yl}propanoate], 1 to 10 µM; in that of `Cc1ccc(C(NC(=O)Cc2ccc3[nH]cc(CCC(=O)OC(C)(C)C)c3c2)c2ccc(C)s2)c(N2CCCCC2)c1` (centres unmarked) [Cpd. 137, tert-butyl 3-{5-[({[4-methyl-2-(piperidin-1-yl)phenyl](5-methylthiophen-2-yl)methyl}carbamoyl)methyl]-1H-indol-3-yl}propanoate], 1 to 10 µM.

For `Cc1ccc(C(NC(=O)Cc2ccc3[nH]cc(CCC(=O)OC(C)(C)C)c3c2)c2nccs2)c(N2CCCCC2)c1` (centres unmarked) [Cpd. 139, tert-butyl 3-{5-[({[4-methyl-2-(piperidin-1-yl)phenyl](1,3-thiazol-2-yl)methyl}carbamoyl)methyl]-1H-indol-3-yl}propanoate], the half-inhibitory concentration (IC50) is below 1 µM.

Take `CC(C)(C)OC(=O)CCc1c[nH]c2ccc(CC(=O)NC3(c4ccccc4N4CCCCC4)CCCCC3)cc12` [Cpd. 143, tert-butyl 3-{5-[({1-[2-(piperidin-1-yl)phenyl]cyclohexyl}carbamoyl)methyl]-1H-indol-3-yl}propanoate]: the IC50 is 1 to 10 µM. Regarding `CCOc1ccc(C(NC(=O)Cc2ccc3[nH]cc(CCC(=O)OC(C)(C)C)c3c2)c2ccccc2)c(N2CCCCC2)c1` (centres unmarked) [Cpd. 149, tert-butyl 3-{5-[({[4-ethoxy-2-(piperidin-1-yl)phenyl](phenyl)methyl}carbamoyl)methyl]-1H-indol-3-yl}propanoate], the half-maximal inhibitory concentration (IC50) lay within 1 to 10 µM.

Molecule `Cc1cccc(C(NC(=O)Cc2ccc3[nH]cc(CCC(=O)OC(C)(C)C)c3c2)c2ccccc2N2CCCCC2)c1` (centres unmarked) [Cpd. 157, tert-butyl 3-[5-({[(3-methylphenyl)[2-(piperidin-1-yl)phenyl]methyl]carbamoyl}methyl)-1H-indol-3-yl]propanoate] had an IC50 below 1 µM. `Cc1ccc(C(NC(=O)Cc2ccc3[nH]cc(CCC(=O)OC(C)(C)C)c3c2)c2ccccc2)c(N)c1` (centres unmarked) [Cpd. 183, tert-butyl 3-[5-({[(2-amino-4-methylphenyl)(phenyl)methyl]carbamoyl}methyl)-1H-indol-3-yl]propanoate]: the IC50 is 1 to 10 µM. `Cc1ccc(C(C(=O)NCc2ccc3[nH]cc(CCC(=O)OC(C)(C)C)c3c2)c2ccccc2)c(N2CCCCC2)c1` (centres unmarked) [Cpd. 208, tert-butyl 3-[5-({2-[4-methyl-2-(piperidin-1-yl)phenyl]-2-phenylacetamido}methyl)-1H-indol-3-yl]propanoate] came in with an IC50 below 1 µM. Molecule `CCOC(=O)CCCC(=O)c1c[nH]c2ccc(CC(=O)NC(c3ccccc3)c3ccccc3N3CCCCC3)cc12` (centres unmarked) [Cpd. 214, ethyl 5-oxo-5-{5-[({phenyl[2-(piperidin-1-yl)phenyl]methyl}carbamoyl)methyl]-1H-indol-3-yl}pentanoate] had an IC50 of 1 to 10 µM. In the case of `CCCCC(NC(=O)Cc1ccc2[nH]cc(CCC(=O)OC(C)(C)C)c2c1)c1ccccc1N(CC)CC` (centres unmarked) [Cpd. 218, tert-butyl 3-{5-[({1-[2-(diethylamino)phenyl]pentyl}carbamoyl)methyl]-1H-indol-3-yl}propanoate] it was 1 to 10 µM; in that of `COC(=O)Cc1c[nH]c2ccc(CC(=O)NC(c3ccccc3)c3ccc(C)cc3Br)cc12` (centres unmarked) [Cpd. 220, methyl 2-[5-({[(2-bromo-4-methylphenyl)(phenyl)methyl]carbamoyl}methyl)-1H-indol-3-yl]acetate], below 1 µM; in that of `COC(=O)Cc1c[nH]c2ccc(CC(=O)NC(c3ccc(C)s3)c3ccc(C)cc3C)cc12` (centres unmarked) [Cpd. 222, methyl 2-[5-({[(2,4-dimethylphenyl)(5-methylthiophen-2-yl)methyl]carbamoyl}methyl)-1H-indol-3-yl]acetate], 1 to 10 µM. To `COC(=O)Cc1c[nH]c2ccc(CC(=O)NC(c3ccccc3)c3ccccc3N3CCOCC3)cc12` (centres unmarked) [Cpd. 224, methyl 2-{5-[({[2-(morpholin-4-yl)phenyl](phenyl)methyl}carbamoyl)methyl]-1H-indol-3-yl}acetate] belongs below 1 µM; to `Cc1ccc(C(NC(=O)Cc2ccc3[nH]cc(CCC(=O)OC(C)(C)C)c3c2)c2ncccn2)c(Br)c1` (centres unmarked) [Cpd. 226, tert-butyl 3-[5-({[(2-bromo-4-methylphenyl)(pyrimidin-2-yl)methyl]carbamoyl}methyl)-1H-indol-3-yl]propanoate], below 1 µM.
